Article PMC10451034, “Highly Efficient Photosensitizers with Molecular Vibrational Torsion for Cancer Photodynamic Therapy” (ACS Central Science, 2023)

How the values were obtained:
[1] = Singlet oxygen quantum yield by DPBF decay curve method; format: physicochemical; conditions: for ΦΔ, singlet oxygen quantum yield: methylene blue as standard, 660 nm irradiation
Protocol: Afterward, the singlet oxygen yields of the series of molecules were preliminarily measured and analyzed by the 1,3-diphenylisobenzofuran (DPBF) decay curve method (Figures 2d,e and S2). […] Meanwhile, in order to exclude the effect of the rigid structure, ΦΔ of a Cy7-like reference molecule (TCy7C) with a rigidified structure but absence of an oxygen atom was measured. The singlet oxygen yield of TCy7C was 2.2%, even lower than that of TCy7 under the same conditions (Figure S3). […]
Photoexcited singlet oxygen production was detected by employed 1,3-diphenylisobenzofuran (DPBF) as the indicator. The absorbance of DPBF at 415 nm was regulated to about 1.0 in DCM. And the samples were irradiated with 660 nm light for various times, then the absorption spectra of different time nodes were recorded.
The singlet oxygen quantum yield (ΦΔ) was calculated by the following equation:
Where “Φ” represent the singlet oxygen quantum yield , “sam” and “std” represent QTCy7-R and MB, respectively. “m” is the slope of the absorbance of DPBF at 415 nm with time, F=1–10-O.D. (O.D. is the absorbance of samples at 660 nm). […]

[2] = Oil-water partition coefficient (Log P); format: physicochemical
Protocol: In order to guarantee the preciseness of the supposition, electrostatic potential (ESP) analysis of the molecular surface was conducted to quantify the surface charge distribution.[48] With a unit positive charge, the surface potential of the molecule was mostly positive. As depicted in Figure 7a, most of the positive electrostatic potential regions on the surface of the molecules were located on the benzothiazole groups in all four compounds, while only a small amount of positive electrostatic potential and negative electrostatic potential are distributed on the benzoquinone group and the oxygen atom, respectively. […] On the contrary, QTCy7-Ph preferred a larger effective surface area at the low surface positive potential region (<55 kcal/mol). In addition, the areas of surface electrostatic potential in QTCy7-Me and QTCy7-Ac were maintained in a median (QTCy7-Ac was partly larger than QTCy7-Me) (Figure 7b). The oil–water partition coefficient (Log P) was also taken into account to study cell uptake. According to Log P (Figure 7c), the introduction of phenyl enhanced the lipophilicity of QTCy7-Ph, resulting a good membrane permeability, whereas the introduction of formyl enhanced the hydrophilicity of QTCy7-CHO, which decreased its cellular uptake capacity. […] This explains why only a small amount of QTCy7-CHO adhered on the membrane surface (Figure 7c).

[3] = test system: HepG2 cells; test: Confocal imaging of cellular uptake, subcellular localization and membrane damage; format: cell-based, human; conditions: for cell membrane damage on illumination: CLSM, illumination 0-4 min; for cellular distribution / Pearson correlation (colocalization) coefficient with MitoTracker Green: HepG2 cells; for cellular distribution: incubated 90 min; for photostability in cells: fluorescence intensity in cells during light irradiation; for Pearson correlation (colocalization) coefficient with MitoTracker Green: mitochondria
Protocol: In view of QTCy7-R having strong singlet oxygen generation potency and reasonable wavelength, human hepatocellular carcinoma cells were selected for photoactivity experiments in vitro. On account of their low molecular weights and intrinsic positive cationic charge, QTCy7-R could be quickly taken up by cells within 90 min (Figure S19a,b). […] According to our supposition, the enhanced partial cationic charge caused by the introduction of the EWG in QTCy7-Ac or QTCy7-CHO made it easier for them to cling to the cell membrane with negative charge than to cross it.
Next, in order to verify the disruption effect on cell structural integrity of the ^1O2 generation by QTCy7-R under irradiation, JC-1 staining imaging was conducted to monitor the mitochondria membrane potential. […] On the other hand, cell membrane damage caused by the photooxidation of QTCy7-Ac and QTCy7-CHO could be confirmed by a visualized observation. […] Furthermore, the lactate dehydrogenase (LDH) content in cell culture medium was measured to characterize the extent of cell membrane damage.[49] […]
medium (DMEM, Invitrogen) with 10 % fetal bovine serum (Invitrogen) and 1% penicillinstreptomycin. All cells were treated at 37 °C with the humidified atmosphere containing 5% CO2 and 95% air. Before conducting cell imaging experiments, all types of cells were maintained on 35 mm glass-bottom cell dishes for 24 h.
Confocal fluorescence imaging
After culturing the cells in 35 mm glass-bottom cell dishes for 24 h, the DMEM medium was replaced with saline, then QTCy7-R was added (3 μM). The confocal fluorescence imaging was carried out and images were recorded. (λex = 640 nm, λem = 680-780 nm). In the suborganelle localization experiment s, the cells were incubated with 3 μM QTCy7-R for 90 min and then stained with LysoTracker Green DND 26 (200 nM) and MitoTracker Green FM (200 nM), respectively. After fluorescence imaging, colocalization coefficient was analyzed and recorded. (LysoTracker Green DND 26 and MitoTracker Green FM: λex = 488 nm, λem = 500-550 nm). […]

[4] = test system: HepG2 cells; test: MTT cytotoxicity assay, HepG2; format: cell-based, human; conditions: for surviving cells: HepG2, dark, concentration around 160 μM; for IC50: Homo sapiens
Excerpt: To further quantitatively explore the in vitro anticancer potency of QTCy7-R, the methyl thiazolyltetrazolium (MTT) assay was employed to detect cell viability. […] Next, we evaluated the cytotoxicity under dark conditions of this series of compounds at high concentrations (Figure 9e), as due to the characteristics of mitochondrial accumulation, QTCy7-Me and QTCy7-Ph might lead to mitochondrial depolarization and apoptosis at high concentrations. However, its IC50 value could still reach about 60 μM, which was almost […] than those of all cyanine photosensitizers reported. […] The photocytotoxicity index value (dark IC50/light IC50) of QTCy7-Ac was >500, manifesting that QTCy7-Ac is a PS with high efficacy but low cytotoxicity, which is extremely promising in clinical application. […]
Cytotoxicity was tested by the reduction of methyl thiazolyl tetrazolium to formazan by succinic acid dehydrogenase in the mitochondria of living cells (MTT assay). HepG2 cells, MCF7 cells and 4T1 cells were seeded to 96-well microplates (Nunc, Denmark) with a density of 1 × 10^5 cells/mL cells in 100 μL DMEM medium and incubated at 37 °C for 24 h. When the cell density reached about 70%, the QTCy7-R with different concentrations (4, 3, 2, 1.5, 1, 0.75, 0.5, 0.25, 0 μM) in PBS were added to the wells of cells in dark condition, respectively. For light groups, the cell incubation conditions were the same as those of the dark group and the cells were further incubated for 2 h, subsequently, the cells were subjected to 660 nm irradiation (20 mW/cm2) for different time (10 min, 5 min and 2.5 min) corresponding to different light doses (12 J/cm2, 6 J/cm2 and 3 J/cm2). Then all the cells were incubated for 12 h, after which the MTT solution in DMEM (0.5 mg/ml, 100 μL) was added to each well and the cells were incubated at 37 °C for another 4 h. The MTT solution was carefully removed and 100 μL DMSO was added to dissolve formazan, and the absorbance of each well was measured by a multifunctional microplate reader at 570 nm and 630 nm. The cell viability was obtained by the following equation: […]
Where “OD” represent the absorbance at 570 nm and 630 nm, “ps” and “control” represent experimental groups and control groups, respectively. […]

[5] = HepG2, light or radiation study, HepG2, 660 nm irradiation 12 J/cm^2

SMILES	ΦΔ, singlet oxygen yield ([1]; in dichloromethane, DPBF method)	ΦΔ, singlet oxygen quantum yield ([1]; in dichloromethane)	singlet oxygen yield relative to TCy7 ([1]; under NIR irradiation)	logP [2]	cell membrane damage on illumination [3]	cellular distribution [3]	photostability in cells [3]	photocytotoxicity index (dark IC50/light IC50) ([4]; HepG2)	surviving cells [4]	IC50 ([4]; HepG2, light or radiation study, HepG2, 660 nm irradiation 3 J/cm^2)	IC50 ([4]; HepG2, light or radiation study, HepG2, 660 nm irradiation 6 J/cm^2)	IC50 [4, 5]	enhancement compared with commercial Ce6 photosensitizer ([4]; cell destruction at low light doses)	Pearson correlation (colocalization) coefficient with MitoTracker Green [3]	IC50 ([4]; HepG2, HepG2, dark conditions)
CCOC(=O)C1=C/C(=C\C=C2/Sc3ccccc3N2CC)C(=O)C(/C=C/c2sc3ccccc3[n+]2CC)=C1 [QTCy7-Ac]	33.8%	0.338	13 fold	1.41	formation of distinct bubblelike structures	effectively adhere to the cell membrane	good photostability	> 500	70–80%	~2 µM	~1.2 µM	~0.3 µM	11 fold	–	–
CCN1/C(=C/C=C2\C=C(C=O)C=C(/C=C/c3sc4ccccc4[n+]3CC)C2=O)Sc2ccccc21 [QTCy7-CHO]	–	0.263	–	1.17	did not cause severe cell membrane rupture	effectively adhere to the cell membrane	good photostability	–	70–80%	–	–	~1.8 µM	–	–	–
CCN1/C(=C/C=C2\C=C(C)C=C(/C=C/c3sc4ccccc4[n+]3CC)C2=O)Sc2ccccc21 [QTCy7-Me]	–	0.225	–	1.43	–	could get inside cells	–	–	–	–	–	~0.9 µM	–	0.92	~60 µM
CCN1/C(=C/C=C2\C=C(c3ccccc3)C=C(/C=C/c3sc4ccccc4[n+]3CC)C2=O)Sc2ccccc21 [QTCy7-Ph]	–	0.212	–	1.69	–	could get inside cells	–	–	–	–	–	~0.3 µM	–	0.89	~60 µM
